PMC6522510 (Nature Communications, 2019)
Like-named read-outs stand apart in the source and are kept apart here.

Tests used:
[1] = system: CMK; test: Secondary dose-response HTS, Cell Titer Glo; type: cell-based, human; conditions: Homo sapiens, CMK; secondary HTS, 72 h, average of triplicate; read-out: EC50 CMK
[2] = system: M07e; test: Secondary dose-response HTS, Cell Titer Glo; type: cell-based, human; conditions: Homo sapiens, M-07e
[3] = system: ML2; test: Secondary dose-response HTS, Cell Titer Glo; type: cell-based, human; conditions: Homo sapiens, ML-2
[4] = system: panel of 8 AML cell lines; test: Secondary dose-response HTS, whole panel; type: cell-based, human; conditions: Homo sapiens; all cell lines; read-out: potency across subtypes in the secondary HTS
[5] = system: CHRF288-11; type: cell-based; conditions: Homo sapiens; 72 h, Cell Titer Glo; read-out: IC50 CHRF288-11
[6] = system: MV4-11; type: cell-based; conditions: Homo sapiens, 72 h, Cell Titer Glo
[7] = system: MLLr primary AML blast samples; test: Ex vivo drug treatment of primary AML blasts on mesenchymal stromal cells; type: cell-based; conditions: Homo sapiens; primary blasts on MSC, 96 h, range over patient samples
[8] = system: AML cell lines; test: Nuclear accumulation of [3H]-labelled drug; type: cell-based, human; conditions: 2 h, 1 µM
[9] = system: AMKL patient-derived xenograft; test: In vivo efficacy, survival; parameters: species or system NSG-SGM3 mice; conditions: AMKL PDX, 50 mg kg−1 q4d, i.p.
[10] = system: Mll-PTD/wt:Flt3ITD/ITD primary transplants; test: In vivo efficacy, survival; parameters: species or system mice; conditions: Mll-PTD/wt:Flt3ITD/ITD primary transplants, 50 mg kg−1 q4d, i.p.
[11] = system: AML cell lines; conditions: human, 5 min, 1 µM
[12] = system: CMK; test: cells; parameters: species or system AML cell lines (8); Secondary HTS, 10-point dose-response in triplicate, Cell Titer Glo viability, four-parameter fit EC50; conditions: Homo sapiens, CMK, 72 h, read-out: CMK

Nc1ccn([C@@H]2O[C@H](CO)[C@@H](O)C2(F)F)c(=O)n1 [Gemcitabine, gemcitabine]
EC50 [1]: 10 nM | EC50 ([2]; secondary HTS, 72 h, average of triplicate, read-out: EC50 M07e): 60 nM | EC50 ([2]; secondary high-throughput screen, M07e, read-out: average effective concentration, M07e): 62 nM | EC50 ([3]; secondary HTS, 72 h, average of triplicate, read-out: EC50 ML2): 2 nM | EC50 ([3]; secondary high-throughput screen, read-out: average effective concentration, ML-2): 1.7 nM | EC50 [4]: < 65 nM | IC50 [5]: 0.4 nM | IC50 [6]: 3.2 nM | IC50 [7]: 267 to 4230 nM | nuclear accumulation, gemcitabine compared to cytarabine [8]: 5–19.8 fold | Median survival [9]: 76 days | Median survival [10]: 69 days | intracellular uptake, gemcitabine relative to cytarabine [11]: 1.2–3.6 fold | EC50 [12]: 8.4 nM
